Reference: patent US11564948B2, “Therapeutic methods using erythrocytes” (Sangui Bio Pty Ltd, priority 2015, dated 2023)

System: MIF
Assay: RBCs or RBC ghosts cultured in plasma with heparin or EDTA, MIF ELISA (Example 1)
Type: cell-based, human
Conditions: addition of EDTA to the cell suspensions, compared with heparin treatment; FIG. 2
Method: To determine if the presence of anticoagulants alter the capacity for protein binding to red blood cells, these cells were incubated in plasma with or without heparin or EDTA. Whole blood from healthy volunteers was collected into EDTA vacutainers (3 mg/mL). Plasma was collected from blood collected into hepain and citrate vacutainers. […] The ghosts were then isolated by centrifugation (16,000 g, 20 minutes) and were resuspended in PBS. […] The red blood cells or ghosts were then cultured for 0, 1, or 18 hours at 37° C. As controls, EDTA plasma containing heparin or EDTA were culture under the same conditions. Following incubation, the cell free supernatants was collected and stored at −80° C. Prior to analysis, samples were subjected to ×3 freeze-thaw cycles. MIF concentration of the samples was quantified using a MIF ELISA.

O=C(O)CN(CCN(CC(=O)O)CC(=O)O)CC(=O)O [EDTA, ethylenediaminetetraacetic acid]
MIF in the RBC lysates and ghosts 'lysates': substantially less
